Patent US20080261913A1, “Compounds and pharmaceutical compositions for the treatment of liver disorders” (Idenix Pharmaceuticals, Inc., priority 2006, published 2008)
Where “and” joins values, the source holds several entries; their conditions need not be identical. Equal values may be shown once. One block for each compound: values may come before it.

How the values were obtained:
[1] = test system: Primary hepatocyte cultures (human); test: Determination of triphosphate levels in cells, human primary hepatocytes; assay type: in vitro ADME; conditions: general statement on the table of b531, 10 μM drug
Protocol: Freshly isolated cells from animal and human liver were obtained in suspension on ice. Following receipt, cells were pelleted by centrifugation at 500 rpm (rat) or 700 rpm (monkey and human) and resuspended at 0.8 million cells per mL of platting medium (HPM). Multi-well collagen-coated plates (12-well) were then seeded by addition of 1 mL of cell suspention (0.8 million cells/mL). The plates were gently shaken to evenly distribute the cells and placed in an incubator at 37° C. for approximately 4 to 6 hours to allow cells to attach. Once cells have attached, the platting medium was removed and replaced with hepatocyte culture medium (HCM). Cells were left overnight in an incubator at 37° C. to acclimatize to culture and the medium.
Hepatocyte incubations were conducted in a final volume of 1.0 mL HCM/well (0.8 million cells/mL). HCM from overnight incubation of cells was removed and replaced with fresh HCM, pre-warmed to 37° C., containing 10 μM test article from a stock solution in DMSO (final DMSO concentration was 0.1%). […]
Cellular extracts were prepared by transferring 0.9 mL of extract into 2 mL microfuge tubes followed by centrifugation for 5 min at 14,000 rpm. Approximately 100 μL of the supernatant was transferred to HPLC vials and triphosphate levels determined by LCMS/MS as described below. […]

[2] = In vivo studies in rat: A550 and LddATP measured in livers after IV or oral dose; conditions: male rat liver
Protocol: Distribution of A550 (NM-204) (the compound of Example 1 (Hydroxy-tBuSATE N-benzylphosphoroamidate derivative of L-ddA) in the rat liver was evaluated following a single intravenous (I.V.) or oral administration of A550 (NM-204) at a dose of 20 (oral) or 10 (I.V.) mg/Kg body weight. The dose solutions were prepared on the same day prior to dose administration.
At the specified time point (1 and 3 hours for IV animals or 1, 3 and 8 hours for oral animals), each animal was euthanized by CO2 gas followed by exsanguination via the abdominal vein. Livers were collected immediately after sacrifice, flash frozen in liquid nitrogen, placed on dry ice, and later stored at −70° C., before being analyzed.
Control rat liver samples were taken from whole frozen livers (Bioreclamation, Inc. Hicksville, N.Y.) with the aid of a tissue coring utensil (Harris Unicore, 8.0 mm, VWR). Each ˜0.1 g sample was placed in individual 2 mL poly vials with 0.940 mL of 80% MeOH/20% DIH2O and homogenates were prepared using a mechanical tissue disruptor (Tissue Master, Omni-International, Inc, Marietta Ga.). The vials received a 10 μl aliquot of a working stock solution and a 50 μl aliquot of the ISTD before vortexing for ˜30 sec. The mixtures were stored overnight at −20° C. and the next day were removed for 10 min of centrifugation in a benchtop centrifuge. Each supernatant was transferred to individual centrifugation filtration units (0.45 μm) and the resulting filtrates were transferred to HPLC vials for the LC/MS/MS analysis. The final concentrations of ddATP in the calibration standards was 1000, 500, 250, 125, 50, and 0 pmol/ml. Each calibration standard was directly injected in a 50 μL volume onto the ion-exchange column for analysis. Standard curve analysis of calibration standards from control liver extracts was conducted.
Analysis of ddATP was done by an ion-exchange chromatography method with on-line positive ionization ESI-MS/MS detection in multiple reaction monitoring (MRM) detection mode. […] This is equivalent to a range of […] per gram liver by the sample preparation employed. The HPLC MS MS conditions described in Example 5 were utilized.

[3] = test system: Primary hepatocytes (Rat); test: In vitro phosphorylation in hepatocytes (LddA-TP formation), rat; assay type: in vitro ADME
Protocol: (§1) Measurements of the concentration of 2′-3′-dideoxyadenosine-5′-triphosphate (ddATP) (the triphosphate nucleotide of 2′-3′-dideoxyadenosine (ddA) are performed by liquid chromatography tandem mass spectrometry (LC/MS/MS), e.g., of methanolic extracts of hepatocytes.
(§2) The concentration of ddATP is measured by comparison to a standard curve. Working stock solutions of TP-ddA are prepared from a […] stock solution in de-ionized water of ddATP (tetrasodium salt of >91% purity) purchased from Sigma Chemical Co as follows:
(§3) HPLC is conducted on Phenomenex Luna Amino 3 μm 100 A, 30×2 mm column, with a mobile phase: A: 70% 10 mM NH4OAc 30% ACN pH 6.0; and B: 70% 1 mM NH4OAc 30% ACN pH 10.5 as follows:
(§4) Primary hepatocytes (Rat, Cynomolgus Monkey or human) were seeded at 0.8×10^6 in a collagen-coated 12-well plate and allowed to attach 4-6 hours after which time the seeding medium was replaced with serum-free culture medium and cells allowed to acclimatize to the new medium overnight. On the next day, cells were exposed for 1, 4, 8 and 24 hours to test article A550 (NM204) at 10 and 50 μM prepared in fresh culture medium from stock solution in DMSO (final DMSO concentration was 0.1%). At each time point, an aliquot (500 μl) was collected and immediately added to 500 μl of acetonitrile and stored at −20° C. until analysis. The remaining exposure medium was removed and the cell monolayer (stuck to dish) washed 2 times with ice-cold PBS. Any remaining PBS was carefully removed by aspiration and cells were harvested by scraping in 1 mL 70% ice-cold methanol. Cell samples were placed overnight at −20° C. and cellular debris removed by centrifugation on the next day. The supernatants were removed and filtered prior to analysis by LC/MS. A standard curve was prepared by using untreated cells processed similarly except that prior to harvesting in 70% methanol, 10 μl of LddATP standard solutions prepared in methanol were added to the washed monolayers. These control samples were then processed and analyzed as described for test samples.

[4] = test system: Primary hepatocytes (Cynomolgus Monkey); test: In vitro phosphorylation in hepatocytes (LddA-TP formation), monkey; assay type: in vitro ADME
Protocol: as §1, §2, §3, §4

[5] = test system: Primary hepatocytes (human); test: In vitro phosphorylation in hepatocytes (LddA-TP formation), human; assay type: in vitro ADME
Protocol: as §1, §2, §3, §4

[6] = IV dose 10 mg/kg, 1 hr, individual animals, 10 mg/kg
[7] = IV dose 10 mg/kg, 3 hrs, individual animals, 10 mg/kg
[8] = Oral dose 20 mg/kg, 1 hr, individual animals, 20 mg/kg
[9] = Oral dose 20 mg/kg, 3 hrs, Mean
[10] = Oral dose 20 mg/kg, 3 hrs, individual animals, 20 mg/kg
[11] = Oral dose 20 mg/kg, 8 hrs, Mean
[12] = Oral dose 20 mg/kg, 8 hrs, individual animals, 20 mg/kg

levels of intracellular triphosphate as compared to those for NM107 [1]: much higher
Compound: CC(C)(CO)C(=O)SCCOP(=O)(NCc1ccccc1)OC[C@H]1O[C@@H](n2ccc(N)nc2=O)[C@](C)(O)[C@@H]1O (mixture of isomers) [Example B102, Hydroxy-tBuSATE N-Benzylphosphoroamidate Derivative of 2′-C-methylcytidine]

Compound: Hydroxy-tBuSATE N-benzylphosphoroamidate derivative of L-ddA [Example A550]
Concentration Compound (Ex 1) ([2]; IV dose 10 mg/kg, 1 hr, Mean): 80.0 pmol/g liver | Concentration. ddA-TP ([2]; IV dose 10 mg/kg, 1 hr, Mean): 1770 pmol/g liver | Concentration. ddA-TP ([2]; IV dose 10 mg/kg, 1 hr, Mean, via hepatocellularity number): 15.5 pmol/10^6 cells | Concentration Compound (Ex 1) [2, 6]: 85.1 pmol/g liver and 65.8 pmol/g liver and 89.1 pmol/g liver | Concentration. ddA-TP [2, 6]: 1355 pmol/g liver and 2025 pmol/g liver and 1930 pmol/g liver | Concentration. ddA-TP ([2]; IV dose 10 mg/kg, 1 hr, individual animals, via hepatocellularity number, 10 mg/kg): 11.9 pmol/10^6 cells and 17.8 pmol/10^6 cells and 16.9 pmol/10^6 cells | Concentration Compound (Ex 1) ([2]; IV dose 10 mg/kg, 3 hrs, Mean): 27.9 pmol/g liver | Concentration. ddA-TP ([2]; IV dose 10 mg/kg, 3 hrs, Mean): 2092 pmol/g liver | Concentration. ddA-TP ([2]; IV dose 10 mg/kg, 3 hrs, Mean, via hepatocellularity number): 18.3 pmol/10^6 cells | Concentration Compound (Ex 1) [2, 7]: 28.3 pmol/g liver and 26.0 pmol/g liver and 29.3 pmol/g liver | Concentration. ddA-TP [2, 7]: 1345 pmol/g liver and 1940 pmol/g liver and 2990 pmol/g liver | Concentration. ddA-TP ([2]; IV dose 10 mg/kg, 3 hrs, individual animals, via hepatocellularity number, 10 mg/kg): 11.8 pmol/10^6 cells and 17.0 pmol/10^6 cells and 26.2 pmol/10^6 cells | Concentration Compound (Ex 1) ([2]; Oral dose 20 mg/kg, 1 hr, Mean): 251 pmol/g liver | Concentration. ddA-TP ([2]; Oral dose 20 mg/kg, 1 hr, Mean): 395 pmol/g liver | Concentration. ddA-TP ([2]; Oral dose 20 mg/kg, 1 hr, Mean, via hepatocellularity number): 3.5 pmol/10^6 cells | Concentration Compound (Ex 1) [2, 8]: 411 pmol/g liver and 272 pmol/g liver and 70.2 pmol/g liver | Concentration. ddA-TP [2, 8]: 210 pmol/g liver and 575 pmol/g liver and 400 pmol/g liver | Concentration. ddA-TP ([2]; Oral dose 20 mg/kg, 1 hr, individual animals, via hepatocellularity number, 20 mg/kg): 1.8 pmol/10^6 cells and 5.0 pmol/10^6 cells and 3.5 pmol/10^6 cells | Concentration Compound (Ex 1) [2, 9]: 204 pmol/g liver | Concentration. ddA-TP [2, 9]: 312 pmol/g liver | Concentration. ddA-TP ([2]; Oral dose 20 mg/kg, 3 hrs, Mean, via hepatocellularity number): 2.7 pmol/10^6 cells | Concentration Compound (Ex 1) [2, 10]: 360 pmol/g liver and 92.1 pmol/g liver and 161 pmol/g liver | Concentration. ddA-TP [2, 10]: 200 pmol/g liver and 330 pmol/g liver and 405 pmol/g liver | Concentration. ddA-TP ([2]; Oral dose 20 mg/kg, 3 hrs, individual animals, via hepatocellularity number, 20 mg/kg): 1.8 pmol/10^6 cells and 2.9 pmol/10^6 cells and 3.6 pmol/10^6 cells | Concentration Compound (Ex 1) [2, 11]: 20.1 pmol/g liver | Concentration. ddA-TP [2, 11]: 382 pmol/g liver | Concentration. ddA-TP ([2]; Oral dose 20 mg/kg, 8 hrs, Mean, via hepatocellularity number): 3.3 pmol/10^6 cells | Concentration Compound (Ex 1) [2, 12]: 16.4 pmol/g liver and 28 pmol/g liver and 16.2 pmol/g liver | Concentration. ddA-TP [2, 12]: 280 pmol/g liver and 805 pmol/g liver and 275 pmol/g liver | Concentration. ddA-TP ([2]; Oral dose 20 mg/kg, 8 hrs, individual animals, via hepatocellularity number, 20 mg/kg): 2.5 pmol/10^6 cells and 5.2 pmol/10^6 cells and 2.4 pmol/10^6 cells | LddA TP Levels ([3]; 10 μM, 1 hour): 159.5 pmol/million cells | LddA TP Levels ([3]; 10 μM, 4 hours): 388.0 pmol/million cells | LddA TP Levels ([3]; 10 μM, 8 hours): 468.5 pmol/million cells | LddA TP Levels ([3]; 10 μM, 24 hours): 422.0 pmol/million cells | LddA TP Levels ([3]; 50 μM, 1 hour): 393.0 pmol/million cells | LddA TP Levels ([3]; 50 μM, 4 hours): 1212.0 pmol/million cells | LddA TP Levels ([3]; 50 μM, 8 hours): 1590.0 pmol/million cells | LddA TP Levels ([3]; 50 μM, 24 hours): 1505.0 pmol/million cells | LddA TP Levels ([4]; 10 μM, 1 hour): 287.5 pmol/million cells | LddA TP Levels ([4]; 10 μM, 4 hours): 978.0 pmol/million cells | LddA TP Levels ([4]; 10 μM, 8 hours): 1230.0 pmol/million cells | LddA TP Levels ([4]; 10 μM, 24 hours): 344.0 pmol/million cells | LddA TP Levels ([4]; 50 μM, 1 hour): 2085.0 pmol/million cells | LddA TP Levels ([4]; 50 μM, 4 hours): 5690.0 pmol/million cells | LddA TP Levels ([4]; 50 μM, 8 hours): 6030.0 pmol/million cells | LddA TP Levels ([4]; 50 μM, 24 hours): 3030.0 pmol/million cells | LddA TP Levels ([5]; 10 μM, 1 hour): 161.5 pmol/million cells | LddA TP Levels ([5]; 10 μM, 4 hours): 312.5 pmol/million cells | LddA TP Levels ([5]; 10 μM, 8 hours): 352.5 pmol/million cells | LddA TP Levels ([5]; 10 μM, 24 hours): 366.0 pmol/million cells | LddA TP Levels ([5]; 50 μM, 1 hour): 682.5 pmol/million cells | LddA TP Levels ([5]; 50 μM, 4 hours): 1480.0 pmol/million cells | LddA TP Levels ([5]; 50 μM, 8 hours): 1930.0 pmol/million cells | LddA TP Levels ([5]; 50 μM, 24 hours): 2062.5 pmol/million cells
